Test results taken from US20040132642A1, “Methods of inhibiting metastasis or growth of a tumor cell” (Government of the U.S.A., represented by the Secretary, …, priority 2002, published 2004).

Columns and labels:
[1] = tested on: activated bone-marrow-derived dendritic cells; experiment: in vitro chemotaxis of dendritic cells to CXCL12; format: cell-based; conditions: T22 500 ng/ml; 200 ng/ml of CXCL12
[2] = tested on: CXCR4-B16 cells; experiment: pulmonary metastasis after i.v. injection of CXCR4-B16 cells (lung luciferase assay); format: in vivo, mice; conditions: for effect on pulmonary metastasis: CXCR4-B16-injected mice; for effect on pulmonary metastasis / Average weight: 4 μg peptide i.p. daily; for Luciferase activity (RLU): lung, 4 μg peptide/mouse i.p. daily; for Luciferase activity (RLU) / Average weight: CXCR4-B16 cells i.v.; for Average weight: mass of the lungs; for Average Relative Luciferase Units: CXCR4-B16 i.v., 14-day assay
Procedure: (§1) Luciferase activity was measured using a Luciferase Reporter assay system (Promega, Madison, Wis.). Cultured cells were lysed with 100 μl of undiluted lysis buffer and then assayed in the presence of luciferin using a Thermo Labsystems MLX 96-well luminometer (Helsinki, Finland). Units are in arbitrary light units. For tissue assays, organs from each animal were homogenized in 1 ml of lysis buffer, of which 25 μl aliquots were then assayed in duplicate. Means of duplicates were used to represent the luciferase activity for a given tissue from a particular animal. Five to ten animals per experimental treatment group were used for typical experiments.
(§2) CXCR4- and pLNCX2-B16 cells in exponential growth phase were harvested by trypsinization and washed twice in PBS prior to injection. Cell viability was >95% as determined by trypan blue dye exclusion. For the footpad (i.e., subcutaneous) injection, B16 cells (4×10^5 cells in 20 μl PBS) were subcutaneously injected into the left footpads of C57BL/6 mice. Tumor growth was monitored three times per week by measurement of two maximum perpendicular tumor diameters. When tumors reached 5-7 mm in size, animals were euthanized prior to harvesting of lung and LN. Popliteal LN were removed by gently pulling skin (including the dermis and subcutaneous fat) above the popliteal fossa and carefully exposing the LN resting in the adipose tissue of the fossa with a pair of forceps. For intravenous injection, 4×10^5 CXCR4- or pLNCX2-B16 cells in 200 μl were injected into the tail veins of mice. T22 and ALA peptides in sterile PBS were administered via an intraperitoneal (i.p.) route using 4 μg peptide/mouse daily for the indicated duration of treatment. Experiments were performed 2-4 times each with similar trends.
To determine whether T22 would inhibit the CXCR4-mediated increase in metastasis, mice were injected intravenously with CXCR4-B16 and pLNCX2-B16 cells. Subgroups of CXCR4-B16 mice were treated daily with 4 μg of either T22 or ALA control peptide. CXCR4-B16 cells accumulated in greater numbers in the lung compared to pLNCX2-B16 cells (Table 4), confirming the results described in Example 2.
It has been shown that the CXCR4 inhibitory peptide, T22, blocked pulmonary metastasis of CXCR4-B16 cells when this CXCR4 inhibitor was used daily throughout the course of the 14-day metastastis assay (Murakami et al., Cancer Res. 62:7328-7334 (2002)). To determine if short-term treatment with T22 was also effective in blocking metastasis, the in vivo assay described in Murakami et al., Cancer Res. 62:7328-7334 (2002), was modified and the drug was only given for the first two days of the 14-day waiting period following i.v. injection of CXCR4-B16 and pLNCX2-B16 cells. In one group of animals, the CXCR4 antagonist peptide T22 was administered intraperitoneally (i.p.) shortly after tumor inoculation and again 24 hours later. In another group of CXCR4-B16-injected mice, T22 was given daily for 14 days.
To determine whether T22 treatment during the last 7 days of the metastasis assay could reduce tumor burden, T22 was given daily either during the entire 2-week treatment period or for just the second week (Table 9).
CXCR4-B16 and pLNCX2-B16 cells in exponential growth phase were harvested by trypsinization and washed twice in PBS before injection. Cell viability was >95% as determined by trypan blue dye exclusion. CXCR4-B16 or pLNCX2-B16 cells (4×10^5 in 200 μl PBS) were then injected into the tail veins of mice. T22 and ALA peptides in sterile PBS were administered via an i.p. route using 4 μg peptide/mouse daily for the indicated duration of treatment as described (Murakami et al., Cancer Res. 62:7328-7334 (2002)). Mice were euthanized after 14 days for gross inspection of lungs and luciferase quantification of metastasis by luciferase activity (Murakami et al., Cancer Res. 62:7328-7334 (2002)). […]

[3] = tested on: CXCR4-B16 cells; experiment: growth of CXCR4-B16 cells under low serum conditions in vitro; format: cell-based, murine; conditions: for effect of peptide alone on growth: T22 or ALA alone; for cell count CXCR4-B16 24 h / cell count CXCR4-B16 48 h: low serum (0.5% FCS); for block of growth stimulated by CXCL12: low serum, in the presence of CXCL12
Procedure: (§3) CXCR4- and pLNCX2-B16 cells (2×10^4 cells/well) were cultured in triplicate for 24 hr in 24-well plates containing B16 growth medium (DMEM, 10% FCS). After rinsing the cells in serum-free DMEM, the B16 cells were incubated for 40 hr at 37° C. in DMEM containing low serum (0.5% FCS). At this point, CXCL12 (500 ng/ml) was added to the cells by itself or with either T22 or control ALA peptide at 1 μg/ml for the indicated times. Cells were then harvested at 24 or 48 hr later and counted by a hemacytometer.

[4] = tested on: pLNCX2-B16 cells; experiment: growth of pLNCX2-B16 cells under low serum conditions in vitro; format: cell-based, murine; conditions: for cell count pLNCX2-B16 24 h / cell count pLNCX2-B16 48 h: low serum (0.5% FCS); for effect on growth of pLNCX2-B16 cells: under either low or high serum conditions
Procedure: as §3

[5] = tested on: CXCR4-B16 cells; experiment: growth of CXCR4-B16 cells injected into the footpad; format: in vivo, mice; conditions: compared to either PBS or ALA
Procedure: as §2

[6] = tested on: pLNCX2-B16 cells; experiment: pulmonary metastasis after i.v. injection of pLNCX2-B16 cells (lung luciferase assay); format: in vivo; conditions: pLNCX2-B16-injected mice
Procedure: as §1
CXCR4- and pLNCX2-B16 cells in exponential growth phase were harvested by trypsinization and washed twice in PBS prior to injection. Cell viability was >95% as determined by trypan blue dye exclusion. […] Tumor growth was monitored three times per week by measurement of two maximum perpendicular tumor diameters. […]
CXCR4-B16 and pLNCX2-B16 cells in exponential growth phase were harvested by trypsinization and washed twice in PBS before injection. Cell viability was >95% as determined by trypan blue dye exclusion. […] Mice were euthanized after 14 days for gross inspection of lungs and luciferase quantification of metastasis by luciferase activity (Murakami et al., Cancer Res. 62:7328-7334 (2002)). […]

[7] = peptide 1 μg/ml together with SDF-1 (CXCL12 500 ng/ml)
[8] = treatment alone, CXCL12 500 ng/ml, peptide 1 μg/ml

Substance | block of in vitro chemotaxis to CXCL12 [1] | effect on pulmonary metastasis [2] | Luciferase activity (RLU) [2] | Average weight [2] | effect of peptide alone on growth [3] | cell count CXCR4-B16 24 h [3, 7] | cell count CXCR4-B16 48 h [3, 7] | cell count CXCR4-B16 24 h [3, 8] | cell count CXCR4-B16 48 h [3, 8] | block of growth stimulated by CXCL12 [3] | cell count pLNCX2-B16 24 h [4, 7] | cell count pLNCX2-B16 48 h [4, 7] | cell count pLNCX2-B16 24 h [4, 8] | cell count pLNCX2-B16 48 h [4, 8] | effect on growth of pLNCX2-B16 cells [4] | other results
H-KWAFRVAYRGIAYRRAR-OH [ALA, reference compound] | no inhibitory effect | no effect | 43928 ± 29729 RLU | 0.88 g | did not significantly alter growth | 16.0 ± 1.0 | 33.3 ± 6.7 | 12.0 ± 0.1 | 22.3 ± 1.2 | but not by the control peptide | 10.7 ± 2.9 | 22.7 ± 3.2 | 10.0 ± 1.0 | 20.3 ± 3.5 | did not affect the growth | 
NH2-RRWCYRKCYKGYCYRKCR-COOH (H-RRWCYRKCYKGYCYRKCR-OH; cysteine pairing not given here) [T22] | block specifically | reduced metastasis to levels seen in pLNCX2-B16 injected mice | 1114 ± 956 RLU | 0.55 g | did not significantly alter growth | 12.7 ± 2.1 | 20.7 ± 3.0 | 11.0 ± 1.0 | 22.0 ± 1.0 | could be blocked | 12.3 ± 0.6 | 21.7 ± 3.2 | 10.7 ± 1.2 | 21.0 ± 1.0 | did not affect the growth | Average Relative Luciferase Units ([2]; T22 daily 2nd week only): 81981.2 Relative Luciferase Units; Average Relative Luciferase Units ([2]; T22 daily for 2 weeks): 15294.5 Relative Luciferase Units; protection against CXCR4-mediated pulmonary metastasis ([2]; T22 i.p. for the first two days of the 14-day assay): as effective as giving T22 daily for the entire 2-week course; metastatic burden ([2]; T22 treatment during the second week only): same metastatic burden as PBS (mock) treatment; effect on growth of cells injected into the footpad [5]: no significant effect on the growth; effect on metastasis [6]: did not block metastasis
